This is an account of results in PubChem BioAssay AID1996.

In brackets after ≈: the same amount, converted by molar mass.

For the data set the following is noted: buffer; pH 7.4; 200.0 µM.
`COc1cccc(C(=O)NCCCNC(=O)c2cccnc2)c1` gave a kinetic solubility of more than 47 µg/mL.
Regarding `COc1ccc(S(=O)(=O)NC2CCCC2)cc1C(N)=O`, the kinetic solubility was more than 44.8 µg/mL.
The figure for `O=C(c1cccs1)N1CC=C(c2ccccc2)CC1` is 11.5 µg/mL (≈ 42.7 µM).
In the case of `c1ccc(Oc2nc(-c3cccnc3)nc3ccccc23)cc1`, the kinetic solubility was 0.7 µg/mL (≈ 2.34 µM).
In turn, `CCCc1ccc(-c2ccc(-c3noc(-c4ccncc4)n3)cc2)nc1` registered a solubility (kinetic) of less than 0.2 µg/mL.
Take `CCn1c(=O)c(C(=O)CN(C)CC(=O)Nc2cccc(F)c2)c(N)n(Cc2ccccc2)c1=O`: the kinetic solubility amounted to 15.6 µg/mL (≈ 33.4 µM).
The same measure for `O=S(=O)([O-])CCC[n+]1ccc(Oc2ccccc2)cc1`: 21 µg/mL (≈ 71.6 µM); for `O=C1CSC(c2ccccc2)N1c1ccc(F)cc1F` (stereo not drawn): 38 µg/mL (≈ 130 µM).
In turn, `CN(CC(=O)Nc1ccccc1Cl)C(=O)CCNC(=O)Nc1ccccc1` gave a solubility (kinetic) of more than 58.3 µg/mL.
In turn, `CC(=O)c1ccc(-n2c(C)c(C(C)=O)c3cc(O)ccc32)cc1` gave a solubility (kinetic) of less than 0.7 µg/mL.
Consider `Cc1ccc(C)c(NC(=O)N2CCc3ccccc3C2)c1`, for which the kinetic solubility came to 18.9 µg/mL (≈ 67.4 µM).
The same measure for `N#CCCN(Cc1cccnc1)C(=S)NCc1ccco1`: more than 45.1 µg/mL.
The compound `C=CCN(C(=O)CN1CCCCC1)c1nc(-c2ccccc2)cs1` had a kinetic solubility of 2.4 µg/mL (≈ 7.03 µM).
In the case of `COc1cccc(C(=O)NOCc2ccc(C)cc2)c1OC`, the kinetic solubility is more than 45.2 µg/mL.
In turn, `COc1cc(C(=O)N2CCCN(C)CC2)cc(OC)c1C.Cl` showed a kinetic solubility of more than 49.3 µg/mL.
Regarding `COc1ccc2ccc(OCC(=O)Nc3cc(C)on3)cc2c1`, the kinetic solubility is 12.4 µg/mL (≈ 39.7 µM).
For `Cc1cc(=O)oc(C)c1C(=O)Nc1ccc(N(C)C)cc1`, the solubility (kinetic) is more than 42.9 µg/mL.
The same measure for `Cc1ccccc1N1C(=O)Cc2ccccc2C1=O`: 35.4 µg/mL (≈ 141 µM); for `Cc1c(C(=O)O)cccc1-c1ccc(/C=C2\SC(=O)NC2=O)o1`: more than 49.4 µg/mL; for `COCCOC(=O)c1sc2nc[nH]c(=O)c2c1C`: more than 40.2 µg/mL.
`CC1CCC2(CC1)NC(=O)N(CC(=O)N1c3ccccc3CC1C)C2=O` (stereo not drawn) showed a kinetic solubility of 5.2 µg/mL (≈ 14.6 µM).
On to `CCOC(=O)Cc1csc(NC(=O)CN2CCN(c3ccccc3)CC2)n1`, for which the kinetic solubility turned out to be 44.6 µg/mL (≈ 115 µM). This solubility kinetic is about 8.6-fold higher than that of the compound before.
Consider `CCN(CC(=O)NCC(=O)Nc1cccc(C)c1C)Cc1ccccc1`, for which the kinetic solubility was more than 53 µg/mL.
Regarding `S=c1[nH]ccn1CCc1ccccc1`, the solubility (kinetic) came to 22.7 µg/mL (≈ 111 µM).
Consider `C=CCn1c(=S)sc2c(=O)[nH]c(C)nc21`, for which the solubility (kinetic) was more than 35.9 µg/mL.
`Cc1cc(NC(=O)C(C)SCC(=O)N(C)Cc2c(F)cccc2Cl)no1` (stereo not drawn): the solubility (kinetic) was more than 60 µg/mL.
In turn, `CC12CCC(=O)N1C(C(=O)NCCc1ccc(F)cc1)CS2` (stereo not drawn) gave a solubility (kinetic) of 46.3 µg/mL (≈ 144 µM).
The figure for `Cc1ccc(N2C(=O)CC(=O)NC2=O)c(C)c1` is more than 34.8 µg/mL.
`CS(=O)(=O)N(CC(=O)N1CCCC1)c1ccc(Cl)cc1` came in with a kinetic solubility of more than 47.5 µg/mL.
Consider `O=C1[C@@H]2[C@H]3CC[C@H](C3)[C@@H]2C(=O)N1O`, for which the solubility (kinetic) is 27 µg/mL (≈ 149 µM).
With `CCCCOCCCNC(=O)N[C@H](C(=O)OC)C(C)CC` (stereo partly drawn), the kinetic solubility was more than 45.4 µg/mL.
The same measure for `[O-][n+]1ccc(OCc2ccccc2)cc1`: more than 30.2 µg/mL; for `O=C(OCC(=O)N1CCc2ccccc21)c1ccccn1`: more than 42.3 µg/mL.
As for `CCCCc1ccc(NC(=O)Nc2cnccn2)cc1`, the solubility (kinetic) was found to be 1.1 µg/mL (≈ 4.07 µM).
On to `N#Cc1c2ccc(OCC(N)=O)cc2n2ccccc12`, for which the solubility (kinetic) is 1.95 µg/mL (≈ 7.35 µM).
The same measure for `CN(CC(=O)N(C)CC(=O)Nc1c(Cl)cccc1Cl)Cc1ccccc1F`: more than 61.8 µg/mL; for `CCS(=O)(=O)N1CCC(C(=O)Oc2ccc(C)c(C)c2)CC1`: 38.5 µg/mL (≈ 118 µM); for `COc1ccc(S(=O)(=O)N2c3ccc(F)cc3CCC2C)cc1` (stereo not drawn): 3.2 µg/mL (≈ 9.54 µM).
For the compound `CN(Cc1c(F)cccc1Cl)C(=O)CNC(=O)c1cccs1`, the kinetic solubility is more than 51.1 µg/mL.
`O=C(OCc1cc(=O)n2ccsc2n1)c1ccccc1O` returned a solubility (kinetic) of 22.5 µg/mL (≈ 74.4 µM).
In the case of `COc1ccc(NC(=S)NCc2ccccc2)c(OC)c1`, the kinetic solubility stood at 38.8 µg/mL (≈ 128 µM).
Consider `O=C(NCc1ccccc1)N1CCC(Cc2ccccc2)CC1`, for which the kinetic solubility was less than 0.3 µg/mL.
In turn, `COc1cccc(C(=O)OCC(=O)NCc2ccc3c(c2)OCO3)c1OC` came in with a kinetic solubility of more than 56 µg/mL.
Compound `COc1ccc(NS(=O)(=O)c2ccc(-c3ccccn3)s2)cc1` displayed a kinetic solubility of 0.8 µg/mL (≈ 2.31 µM).
For `C/C(=N\NC(=O)c1ccc(Cl)cc1)c1ccccn1`, the kinetic solubility is more than 41.1 µg/mL.
The figure for `COc1ccc(C(=O)n2cnc3ccccc32)cc1Br` is 46.7 µg/mL (≈ 141 µM); for `CCN(CC)CC(C)OC(=O)c1ccccc1Cl` (stereo not drawn) it is 37.9 µg/mL (≈ 140 µM); for `CC(=O)c1ccc(N2C(=O)C3C4C=CC(CC4)C3C2=O)cc1` (stereo not drawn) it is more than 44.3 µg/mL.
As to `CCC1(CC)Cc2ccccc2-c2[nH]c(=S)[nH]c(=O)c21`, the solubility (kinetic) came out at 27.3 µg/mL (≈ 95.3 µM).
In turn, `CC(C)CC(=O)NC1(C(F)(F)F)NC(=O)N(c2ccccc2)C1=O` (stereo not drawn) had a kinetic solubility of 45.8 µg/mL (≈ 133 µM).
Compound `O=C(O)c1ccc(/C=N/Nc2ncc(Cl)cc2Cl)cc1` showed a solubility (kinetic) of more than 46.5 µg/mL.
`COc1ccc(NC(=O)CCSCCc2ccccn2)cc1OC` returned a solubility (kinetic) of 49.1 µg/mL (≈ 142 µM).
Take `O=C(NCc1ccc2c(c1)OCO2)c1cc(Cl)ccc1Cl`: the solubility (kinetic) was 1.7 µg/mL (≈ 5.24 µM).
